Experiments:
[1] = tested on: SF-268; assay: NCI screening panel, SF-268 (CNS Cancer); assay type: cell-based, human
Description: (§1) Representative compounds of Formula I were screened using the National Cancer Institute (NCI) screening panel, which consists of a panel of human tumor cell lines, representing leukemia, melanoma, and cancers of the lung, colon, ovary, breast, prostate and renal system.
(§2) After 24 h, two plates of each cell line are fixed in situ with TCA, to represent a measurement of the cell population for each cell line at the time of drug addition (Tz). Experimental drugs are solubilised in dimethyl sulfoxide at 400-fold the desired final maximum test concentration and stored frozen prior to use. At the time of drug addition, an aliquot of frozen concentrate is thawed and diluted to twice the desired final maximum test concentration with complete medium containing 50 μg/mL gentamicin. Additional four, 10-fold or ½ log serial dilutions are made to provide a total of five drug concentrations plus control. Aliquots of 100 μl of these different drug dilutions are added to the appropriate microtiter wells already containing 100 μl of medium, resulting in the required final drug concentrations.
(§3) Following drug addition, the plates are incubated for an additional 48 h at 37° C., 5% CO2, 95% air, and 100% relative humidity. For adherent cells, the assay is terminated by the addition of cold TCA (trichloroacetic acid). Cells are fixed in situ by the gentle addition of 50 μl of cold 50% (w/v) TCA (final concentration, 10% TCA) and incubated for 60 minutes at 4° C. The supernatant is discarded, and the plates are washed five times with tap water and air dried. Sulforhodamine B (SRB) solution (100 μl) at 0.4% (w/v) in 1% acetic acid is added to each well, and plates are incubated for 10 minutes at room temperature. After staining, unbound dye is removed by washing five times with 1% acetic acid and the plates are air dried. Bound stain is subsequently solubilised with 10 mM trizma base, and the absorbance is read on an automated plate reader at a wavelength of 515 nm. For suspension cells, the methodology is the same except that the assay is terminated by fixing settled cells at the bottom of the wells by gently adding 50 μl of 80% TCA (final concentration, 16% TCA). Using the seven absorbance measurements [time zero, (Tz), control growth, (C), and test growth in the presence of drug at the five concentration levels (Ti)], the percentage growth is calculated at each of the drug concentrations levels. Percentage growth inhibition is calculated as: [(Ti−Tz)/(C−Tz)]×100 for concentrations for which Ti>/=Tz and [(Ti−Tz)/Tz]×100 for concentrations for which Ti<Tz.
(§4) Three dose response parameters are calculated for each experimental agent. Growth inhibition of 50% (GI50) is calculated from [(Ti−Tz)/(C−Tz)]×100=50, which is the drug concentration resulting in a 50% reduction in the net protein increase (as measured by SRB staining) in control cells during the drug incubation. The drug concentration resulting in total growth inhibition (TGI) is calculated from Ti=Tz. The LC50 (concentration of drug resulting in a 50% reduction in the measured protein at the end of the drug treatment as compared to that at the beginning) indicating a net loss of cells following treatment is calculated from [(Ti−Tz)/Tz]×100=−50. Values are calculated for each of these three parameters if the level of activity is reached. However, if the effect is not reached or is exceeded, the value for that parameter is expressed as greater or less than the maximum or minimum concentration tested.

[2] = tested on: M14; assay: NCI screening panel, M14 (Melanoma); assay type: cell-based, human
Description: as §1, §2, §3, §4

[3] = tested on: HCT-15; assay: NCI screening panel, HCT-15 (Colon Cancer); assay type: cell-based, human
Description: as §1, §2, §3, §4

[4] = tested on: NCI-H322M; assay: NCI screening panel, NCI-H322M (Non-Small Cell Lung Cancer); assay type: cell-based, human
Description: as §1, §2, §3, §4

[5] = tested on: OCI-AML-2; assay: Cell viability (MTS) assay, OCI-AML-2; assay type: cell-based; conditions: Homo sapiens, OCI-AML2; OCI-AML-2, MTS, 72 hours, mean ± standard deviation
Description: Human multiple myeloma cell lines 8226, H929, JJN3, KMH11, KMS11, KMS18, LP1, MM1S, OPM2 and U266 were grown in Iscove modified Dulbecco's medium (IMDM). Human leukemia cell lines K562, OCI-AML2 and U937 were cultured in RPMI-1640 medium. Primary peripheral blood mononuclear cells were isolated from multiple myeloma patients by Ficoll density gradient centrifugation and bone marrow aspirates were obtained from multiple myeloma patients at the Princess Margaret Cancer Centre of the University Health Network (UHN; Toronto, ON, Canada). Primary cells were cultured in IMDM. The collection and use of human tissue for this study was approved by the UHN institutional ethics review board. All cell culture media were obtained from the Ontario Cancer Institute Tissue Culture Media Facility (Toronto, ON, Canada) and were supplemented with 10% fetal calf serum, […] (Hyclone, Logan, Utah). All cells were grown in a humidified incubator at 37° C. with 5% CO2.
Cellular viability was primarily assessed by 3-(4,5-dimethylthiazol-2-yl)-5-(3-carboxymethoxyphenyl)-2-(4-sulfophenyl)-2H-tetrazolium (MTS) assay according to the manufacturer's instructions (Promega; Madison, Wis.). Cells were first seeded at a density of 10,000 cells per well in tissue culture-treated 96-well plates. Two hours after seeding, cells were treated with compounds for 72 hours at concentrations as indicated. As a control, cells were treated with DMSO alone in every assay plate. Following treatment and the MTS assay, cell viability was independently confirmed by reading the optical density (O.D.) at 490 nm and by exclusion of trypan blue stain (Invitrogen; Burlington, ON, Canada). The viability of primary mononuclear cells was determined by staining with Annexin V.
Table 8 summarizes the data of representative compounds of Formula I for cell viability and CT-L proteasome activity with OCI-AML-2 and KMS-11 cell lines.

[6] = tested on: NCI-H23; assay: NCI screening panel, NCI-H23 (Non-Small Cell Lung Cancer); assay type: cell-based, human
Description: as §1, §2, §3, §4

[7] = tested on: NCI-H522; assay: NCI screening panel, NCI-H522 (Non-Small Cell Lung Cancer); assay type: cell-based, human
Description: as §1, §2, §3, §4

[8] = tested on: OVCAR-4; assay: NCI screening panel, OVCAR-4 (Ovarian Cancer); assay type: cell-based, human
Description: as §1, §2, §3, §4

[9] = tested on: TK-10; assay: NCI screening panel, TK-10 (Renal Cancer); assay type: cell-based, human
Description: as §1, §2, §3, §4

[10] = tested on: UACC-257; assay: NCI screening panel, UACC-257 (Melanoma); assay type: cell-based, human
Description: as §1, §2, §3, §4

Row | SMILES | Log10GI50 [1] | Log10LC50 [1] | Log10TGI50 [1] | Log10GI50 [2] | Log10LC50 [2] | Log10TGI50 [2] | Log10GI50 [3] | Log10LC50 [3] | Log10TGI50 [3] | Log10GI50 [4] | Log10LC50 [4] | Log10TGI50 [4] | IC50 [5] [nM] | Log10GI50 [6] | Log10LC50 [6] | Log10TGI50 [6] | Log10GI50 [7] | Log10TGI50 [7] | Log10GI50 [8] | Log10TGI50 [8] | also measured
1 | CC(C)C[C@H](NC(=O)[C@H](COC(F)F)NC(=O)CN1CCOCC1)C(=O)N[C@@H](COC(F)F)C(=O)N[C@@H](CC(C)C)C(=O)[C@@]1(C)CO1 [Example 1, (2S)—N-[(1S)-1-(difluoromethoxymethyl)-2-[[(1S)-3-methyl-1-[(2R)-2-methyloxirane-2-carbonyl]butyl]amino]-2-oxo-ethyl]-2-[[(2S)-3-(difluoromethoxy)-2-[(2-morpholinoacetyl)amino]propanoyl]amino]-4-methyl-pentanamide] | −7.65 | >−4.00 | −7.17 | −7.25 | >−4.00 | −6.31 | −5.97 | >−4.00 | >−4.00 | −7.19 | −4.86 | −6.45 | 24.2 ± 7.2 | −7.56 | >−4.00 | −6.68 | −7.96 | −7.05 | −7.77 | −6.60 | Log10LC50 [7]: −4.04; Log10LC50 [8]: >−4.00; Log10GI50 [9]: −6.53; Log10LC50 [9]: >−4.00; Log10TGI50 [9]: −5.17; Log10GI50 [10]: −7.01; Log10LC50 [10]: >−4.00; Log10TGI50 [10]: −5.62
2 | CC(C)C[C@H](NC(=O)[C@H](COC(F)F)NC(=O)CN1CCOCC1)C(=O)N[C@@H](Cc1ccccc1)C(=O)N[C@@H](CC(C)C)C(=O)[C@@]1(C)CO1 [Example 2, (2S)-N-[(1S)-1-benzyl-2-[[(1S)-3-methyl-1-[(2R)-2-methyloxirane-2-carbonyl]butyl]-amino]-2-oxo-ethyl]-2-[[(2S)-3-(difluoromethoxy)-2-[(2-morpholinoacetyl)amino]propanoyl]amino]-4-methyl-pentanamide] | −7.81 | >−4.00 | −7.20 | −7.39 | >−4.00 | −6.26 | −6.40 | >−4.00 | −4.66 | −7.01 | −5.35 | −6.43 | 8.41 ± 2.24 | −7.73 | >−4.00 | −6.67 | <−8.00 | −7.43 | −7.84 | −6.49 | Log10LC50 [8]: >−4.00; Log10GI50 [9]: −7.47; Log10LC50 [9]: >−4.00; Log10TGI50 [9]: −5.73; Log10GI50 [10]: −7.23; Log10LC50 [10]: −4.58; Log10TGI50 [10]: −6.43
3 | CC(C)C[C@H](NC(=O)[C@H](COC(F)F)NC(=O)CN1CCOCC1)C(=O)N[C@@H](Cc1ccccc1)C(=O)N[C@@H](Cc1ccccc1)C(=O)[C@@]1(C)CO1 [Example 3, (2S)-N-[(1S)-1-benzyl-2-[[(1S)-1-benzyl-2-[(2R)-2-methyloxiran-2-yl]-2-oxo-ethyl]amino]-2-oxo-ethyl]-2-[[(2S)-3-(difluoromethoxy)-2-[(2-morpholinoacetyl)-amino]propanoyl]amino]-4-methyl-pentan-amide] | <−8.00 | −4.98 | −7.40 | −7.69 | >−4.00 | −6.54 | −6.51 | >−4.00 | >−4.00 | −7.12 | −5.14 | −6.44 | 16.3 ± 5.96 | <−8.00 | −4.33 | −6.69 | <−8.00 | −7.55 | −7.88 | >−4.00 | Log10LC50 [7]: −6.18; Log10GI50 [9]: −7.55; Log10LC50 [9]: >−4.00; Log10TGI50 [9]: −5.91; Log10GI50 [10]: −7.23; Log10LC50 [10]: −4.53; Log10TGI50 [10]: −6.40
4 | CC(C)C[C@H](NC(=O)[C@H](COC(F)F)NC(=O)CN1CCOCC1)C(=O)N[C@@H](COC(F)F)C(=O)N[C@@H](Cc1ccccc1)C(=O)[C@@]1(C)CO1 [Example 4, (2S)-N-[(1S)-2-[[(1S)-1-benzyl-2-[(2R)-2-methyloxiran-2-yl]-2-oxo-ethyl]amino]-1-(difluoromethoxymethyl)-2-oxo-ethyl]-2-[[(2S)-3-(difluoromethoxy)-2-[(2-mor-pholinoacetyl)amino]propanoyl]amino]-4 methyl-pentanamide] | −7.58 | >−4.00 | −6.82 | −6.97 | >−4.00 | −5.66 | −5.91 | >−4.00 | −4.62 | −6.73 | −4.18 | −5.81 | 54.7 ± 10.8 | −7.51 | −4.31 | −6.63 | −7.75 | −7.11 | −7.43 | −6.34 | Log10LC50 [7]: −6.06; Log10LC50 [8]: >−4.00; Log10GI50 [9]: −6.57; Log10LC50 [9]: >−4.00; Log10TGI50 [9]: −5.48; Log10GI50 [10]: −6.71; Log10LC50 [10]: −4.14; Log10TGI50 [10]: −6.11
